Data as given in publication PMC4520450, “Procyanidins Negatively Affect the Activity of the Phosphatases of Regenerating Liver” (PLoS ONE, 2015).

Columns and labels:
PRL-3 = target: T1, PRL-3 (Homo sapiens, UniProt O75365); test: DiFMUP phosphatase activity assay for PRLs; assay type: biochemical; details: 50 nM PRL-3, 30 min preincubation, 25°C, 21 μM DiFMUP; mean ± SEM (n = 3–5); read-out: IC50 (Ki) PRL-3
T1 construct: His-TEV (cleaved yes); made in house
Procedure: Biochemical phosphatase activity measurements were carried out in the presence of different concentrations of various polyphenols, compounds 1–11 (Fig 1), using recombinant PRL-3 and 6,8-difluoro-4-methylumbelliferyl phosphate (DiFMUP) as a fluorogenic substrate (see the experimental procedures). We observed that the monomeric epicatechins EGC and EC inhibit PRL-3 only weakly, with a slightly better activity of EGC, which bears three hydroxyl groups at the B-ring. […] In general, as a basic structure activity-relationship the following trend was observed: a higher number of hydroxyl groups at the B-ring increased the activity slightly. […] The influence of the stereochemistry at C(2)–C(3) was studied by using GCG (the trans-epimer of EGCG).
Fig 2 Effect of polyphenolic compounds 8 (A), 9 (B), 10 (C) and 11 (D) on the phosphatase activity of PRL-1, PRL-2, PRL-3, PP1, and PP2A. Proteins were incubated for 30 min with 0–1000 μM of the corresponding procyandin 8–11. Phosphatase activity was measured in the presence of DiFMUP at 25°C using the concentration corresponding to the KM of each protein. The KM for PRLs was determined separately (PRL-3 = 21 μM, PRL-2 and PRL-1 = 24 μM). The KM for PP1 (91 μM) and for PP2A (100 μM) was taken from the literature. Protein concentrations are 50 nM for all PRLs and 2 mU for PP1 and 0.05 U for PP2A (see the Experimental Procedures). Phosphatase activity in the absence of inhibitors was set as 100%. Data represent means ± standard errors of the mean (n = 3–5).
DiFMUP assay for PRLs: In a final reaction volume of 100 μL the PRLs (50 nM final concentration) were incubated with decreasing concentrations of the inhibitory polyphenols for 30 minutes at 25°C. The buffer conditions were 108 mM TrisCl (pH 7.5), Triton 0.05% (v/v), DTT 27.0 mM, NaCl 811 mM. After the incubation time 20 μL DiFMUP (6,8-Difluoro-4-methylumbelliferyl phosphate) was added to reach a final concentration of 21 μM for PRL-3 and 24 μM for PRL-1 and PRL-2. On a Tecan safire2 (Tecan, Salzburg, Austria) plate reader dephosphorylation of the substrate to its fluorescent product was monitored by following the emission at 358 nm with excitation at 452 nm for 20 minutes. All measurements were done in triplicates, and the experiments were repeated at least three times. The slopes of the initial phases were obtained by linear regression of the data points. The normalized reaction rates were plotted versus the log of the inhibitor concentrations and the IC50 values were obtained by fitting the curves using the one site competition model of GraphPad Prism (GraphPad Software, Version 5). KM values were determined by measuring reaction kinetics of substrate dilution series. Initial velocities were plotted against DiFMUP concentration and the data was analyzed by Michaelis-Menten kinetics curve fitting of GraphPad Prism. A final DMSO content of 0.4% was maintained for the monomeric catechins. Due to the high water solubility of the procyanidins DMSO was not required and measurements were done in assay buffer only.

[1] = system: PRL-1 overexpressing HEK293 cells; test: Wound healing assay; assay type: cell-based; details: for cell migration, wound healing: 7 h, PRL-1 overexpressing cells
Procedure: (§1) To study if procyanidin C2 is able to inhibit PRL-1 and PRL-3 in cells, HEK293 cells were treated in a wound-healing assay (see the experimental procedures). […] As a control the empty vector cell line was again utilized. […] The migration speed was for all cell lines similar when treated with 50 μM of 9. To further corroborate these findings we performed additionally a transwell assay as an alternative way to study cell migration.
(§2) Fig 6 Wound healing abilities of PRL-1 or PRL-3 overexpressing or empty vector control HEK293 cell lines were analyzed in the presence of compound 9 or medium only. Cells were seeded at a concentration of 800,000 cells per insert and procyanidin C2 (9) was added at a concentration of 25 and 50 μM. A) Pictures of the wound gaps were taken at 0 h and 7 h for both conditions (with and without treatment). B) Quantification of the wound healing experiment. Speed of migration is shown for combined data from different replicates, as mean ± SD (n = 38–88). Two-sided t-tests with Welsh correction were performed for p < 0.05. ns = not significant;***: < 0.001; **: < 0.01; *: < 0.05. C) Effect of polyphenolic compounds in a transwell assay on the cell migration of HEK293 empty vector and PRL-3 overexpressing cell lines. Cells were seeded at a concentration of 100,000 cells per insert and procyanidin C2 (9) was added at a final concentration of 25 and 50 μM. Migration was allowed for 16 h before harvesting and staining with calcein AM for fluorescent readout. Mean ± SD (n = 60–72) is shown for combined data from different replicates. Two-sided t-tests with Welsh correction were performed for p < 0.05. ns = not significant. D) Quantification of wound healing experiment including blocking PRL-1 and PRL-3 with analog 3. Speed of migration is shown for combined data from different replicates, as mean ± SD (n = 63–82). Two-sided t-tests with Welsh correction were performed for p < 0.05.
(§3) Wound healing experiments were carried out with μ-dish 35mm culture inserts. 8 × 10^5 cells/mL of the respective HEK293 stable cell lines were seeded into each of the two insert wells and allowed to settle for 40 h in the presence of tetracycline. Then the inserts were gently removed and growth medium supplemented with 7.5% FBS and 0.1% tetracycline was added as well as procyanidin C2 (9) or procyanidin B3 (8) at a final concentration of 25, 50 or 75 μM. For the experiment including blocking of PRLs with analog 3, the latter one was added at a final concentration of 35 μM, followed by addition of procyanidin C2 (9) at either 25 or 50 μM final concentration. Negative controls contained growth medium with FBS only. Pictures of the wound gap were taken at 0 h and 7 h time points. A Zeiss Cellobserver HS microscope was used with 10 × magnitude. For data analysis, in each experiment, the distances between both cell fronts at time point 0 h and 7 h were measured by taking 20 different measuring points. Then all the measurements from different replicates (4) for each experiment were combined and analyzed by t-test using Welsh correction in GraphPad Prism. Data are shown with 99% confidence intervals.

[2] = system: PRL-3 overexpressing HEK293 cells; test: Wound healing assay; assay type: cell-based; details: for cell migration, wound healing: 7 h, PRL-3 overexpressing cells
Procedure: as §1, §2, §3

[3] = system: HEK293 empty vector control cell line; test: Wound healing assay; assay type: cell-based; details: 7 h, empty vector cells
Procedure: as §1, §2, §3

T1 sequence (O75365 whole entry): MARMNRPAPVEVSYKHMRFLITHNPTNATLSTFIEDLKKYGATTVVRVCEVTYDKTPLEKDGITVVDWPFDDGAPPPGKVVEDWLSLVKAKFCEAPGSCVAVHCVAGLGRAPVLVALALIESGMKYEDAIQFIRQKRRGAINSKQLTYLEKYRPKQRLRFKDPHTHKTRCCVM

**Q.** Which results are given for `Oc1cc(O)c2c(c1)O[C@H](c1ccc(O)c(O)c1)[C@@H](O)[C@@H]2c1c(O)cc(O)c2c1O[C@H](c1ccc(O)c(O)c1)[C@@H](O)C2` [Procyanidin B3 (8), Procyanidin B3]?
**A.** IC50 (PRL-3): 127 ± 1.5 µM; cell migration, wound healing ([1]; 50 μM): significantly decreased the number of migrating cells; cell migration, wound healing ([1]; 75 μM): further decreased migration; cell migration, wound healing ([2]; 50 μM): did not significantly increase migration behavior; cell migration, wound healing ([2]; 75 μM): did not significantly increase the migration speed; cell migration, wound healing ([3]; 50 μM): did not significantly increase migration behavior; cell migration, wound healing ([3]; 75 μM): did not significantly increase the migration speed

**Q.** Which results are given for `Oc1cc(O)c2c(c1)O[C@H](c1ccc(O)c(O)c1)[C@@H](O)[C@@H]2c1c(O)cc(O)c2c1O[C@H](c1ccc(O)c(O)c1)[C@@H](O)[C@@H]2c1c(O)cc(O)c2c1O[C@H](c1ccc(O)c(O)c1)[C@@H](O)C2` [Procyanidin C2 (9), Procyanidin C2]?
**A.** IC50 (PRL-3): 18.8 ± 4.5 µM; migration, wound healing, PRLs blocked with analog 3 ([1]; 25 μM of 9 plus 35 μM analog 3, PRL-1 overexpressing cells): not fully restored to the same level as the empty vector cell line; cell migration, wound healing ([1]; 25 μM): slight drop in cell migration; migration speed, wound healing, PRLs blocked with analog 3 ([1]; 50 μM of 9 plus 35 μM analog 3, PRL-1 overexpressing cells): exactly the same as for the empty vector cell line; cell migration, wound healing ([1]; 50 μM): did not change any further compared to 25 μM; migration, wound healing, PRLs blocked with analog 3 ([2]; 25 μM of 9 plus 35 μM analog 3, PRL-3 overexpressing cells): the same as for the empty vector cell line; cell migration, wound healing ([2]; 25 μM): did not decrease significantly; migration speed, wound healing, PRLs blocked with analog 3 ([2]; 50 μM of 9 plus 35 μM analog 3, PRL-3 overexpressing cells): exactly the same as for the empty vector cell line; cell migration, wound healing ([2]; 50 μM): significant decrease in cell migration; cell migration, wound healing ([3]; 25 μM): slightly increased migration behavior; cell migration, wound healing ([3]; 50 μM): significantly increased the number of migrating cells
